Type in all cases: physicochemical
Data set [1] is described as follows: Angle of rupture (Multi Tester MT-1001T). The settings on record: crystal powder, after three impacts. An excerpt:
The angle of rupture refers to an angle formed by a generating line of a cone, formed when a given impact is indirectly applied to a cone formed with a powder by allowing the powder to gently fall onto the horizontal plane through a kind of funnel, and a horizontal plane.
[Specific Example of Measurement Method for Angle of Rupture]
The operation is repeated for three times. Angles are read at three sites by a method similar to the measurement method for the angle of repose, and an arithmetic mean value of the angles is determined to be the angle of rupture.

Data set [2] in a line: Angle of repose (Multi Tester MT-1001T). The settings on record: crystal powder, sieve 1.18 mm, vibration width 0.7 to 0.8 mm. As to the method: The angle of repose refers to an angle formed by a generating line of a cone formed with a powder when the powder is allowed to gently fall onto the horizontal plane through a kind of funnel and a horizontal plane.
[Measurement Conditions for Angle of Repose]
Vibration width: 0.7 to 0.8 mm
The angle-of-repose table is rotated without being given vibration, angles are read at three sites, and an arithmetic mean value of the angles is determined to be the angle of repose.

A short description of data set [3]: Loose specific volume of crystals (50 mL measuring cylinder, two-stage funnel). The conditions noted are these: crystal powder. The method, then: The loose specific volume refers to a value obtained by dividing volume occupied by a powder by the mass of the powder when a container is filled with the powder and the mass of the powder is measured. A crystal with a low loose specific volume is excellent in filling properties, and easy to handle in various processing steps, and also its transportation cost is low. Therefore, the loose specific volume is preferably low. The loose specific volume can be measured by a method comprising: dropping crystals to a 50 mL glass measuring cylinder via a two-stage glass funnel to make the volume of the crystal to be about 45 mL, and measuring the weight of the crystals. A value obtained by dividing the measured volume of the crystal by the weight is determined to be the loose specific volume.

Data set [4] is described as follows: Dense specific volume of crystals (after tapping the cylinder 100 times). The conditions noted are these: crystal powder, after tapping 100 times. The method, then: The dense specific volume refers to a value obtained by dividing volume of a powder by the mass of the powder, when a container is filled with the powder and the mass of the powder is measured and then a given impact is applied to the container. The dense specific volume can be measured by a method comprising: dropping a crystal to a 50 mL glass measuring cylinder via a two-stage glass funnel to make the volume of the crystal to be about 45 mL; measuring the weight of the crystal; then tapping the measuring cylinder up and down for 100 times; and measuring the volume occupied by the crystal. A value obtained by dividing the measured volume of the crystal by the weight thereof is determined to be the dense specific volume.

Data set [5] in a line: Drying loss (water content of crystal by thermal analysis, TG/DTA). The settings on record: water content in the crystals as loss on drying of the thermal analysis. As to the method:
The crystal of L-alanyl-L-glutamine can be confirmed to be a crystal of nonhydrate when the water content, which is measured by using a thermal analysis according to a method described in the following measurement example, is generally 3.0 wt % or less, preferably 2.5 wt % or less, and more preferably 2.0 wt % or less.
[Measurement Example of Water Content of Crystal according to Thermal Analysis]
Used equipment: EXSTAR 6000 TG/DTA 6200 (manufactured by Seiko Instruments Inc.)
Measurement conditions: Temperature increases from 20° C. to 30° C. at 20° C./min→Hold for 15 minutes at 30° C.→Temperature increases from 30° C. to 250° C. at 5° C./min
Nitrogen flow rate: 300 mL/min
About the known crystal obtained by the method described in Japanese Patent No. 4931801 and the crystals of L-alanyl-L-glutamine nonhydrate of the present invention obtained in Examples 10 to 12, the results, which measured in terms of the loose specific volume, the dense specific volume, the angle of repose, the angle of rupture, and the water content in the crystals as loss on drying of the thermal analysis, are shown in Table 17.

Each structure is given as a SMILES string. Residues, ends and D or L forms follow the SMILES beside them.

`CCO.C[C@H](N)C(=O)N[C@@H](CCC(N)=O)C(=O)O` [Example 1, L-alanyl-L-glutamine n-ethanolate] (H-Ala-Gln-OH): the Angle of rupture in data set [1] is 34.6 °. Further, the Angle of repose in data set [2] is 39.7 °. Further, the Loose specific volume in data set [3] is reported as 2.55 mL/g. The Dense specific volume in data set [4] is given as 2.08 mL/g.
For `CCO.C[C@H](N)C(=O)N[C@@H](CCC(N)=O)C(=O)O` [Example 2 (95° C. vacuum drying), L-alanyl-L-glutamine n-ethanolate] (H-Ala-Gln-OH), in that order: 35.0 °, 41.2 °, 2.47 mL/g and 1.88 mL/g.
`CCO.C[C@H](N)C(=O)N[C@@H](CCC(N)=O)C(=O)O` [Example 4 (25° C. vacuum drying), L-alanyl-L-glutamine n-ethanolate] (H-Ala-Gln-OH) showed an Angle of rupture in data set [1] of 35.1 °. This compound also had an Angle of repose in data set [2] of 39.4 °. The Loose specific volume in data set [3] was determined as 3.23 mL/g. The compound further gave a Dense specific volume in data set [4] of 2.32 mL/g.
For `CCO.C[C@H](N)C(=O)N[C@@H](CCC(N)=O)C(=O)O` [Example 4 (95° C. vacuum drying), L-alanyl-L-glutamine n-ethanolate] (H-Ala-Gln-OH), in that order: 38.6 °, 42.5 °, 3.61 mL/g and 2.21 mL/g.
For `C[C@H](N)C(=O)N[C@@H](CCC(N)=O)C(=O)O` [Example 5, L-alanyl-L-glutamine nonhydrate] (H-Ala-Gln-OH), in that order: 34.7 °, 40.2 °, 2.60 mL/g and 2.28 mL/g.
Regarding `C[C@H](N)C(=O)N[C@@H](CCC(N)=O)C(=O)O.O.O` [Example 7, L-alanyl-L-glutamine dihydrate] (H-Ala-Gln-OH), the Angle of rupture in data set [1] is listed as 38.8 °. The compound also registered an Angle of repose in data set [2] of 43.8 °. Further, in data set [3], the Loose specific volume was 3.27 mL/g. The compound further yielded a Dense specific volume in data set [4] of 2.73 mL/g.
`C[C@H](N)C(=O)N[C@@H](CCC(N)=O)C(=O)O` [Example 10, L-alanyl-L-glutamine nonhydrate] (H-Ala-Gln-OH): the Angle of rupture in data set [1] was 39.5 °. The compound also displayed a Drying loss in data set [5] of 1.9%. This compound gave an Angle of repose in data set [2] of 46.4 °. The compound also gave a Loose specific volume in data set [3] of 3.69 mL/g. The Dense specific volume in data set [4] is recorded as 2.59 mL/g.
For `C[C@H](N)C(=O)N[C@@H](CCC(N)=O)C(=O)O` [Example 11, L-alanyl-L-glutamine nonhydrate] (H-Ala-Gln-OH), in that order: 38.0 °, 1.9%, 42.8 °, 3.65 mL/g and 2.84 mL/g.
The like results for `C[C@H](N)C(=O)N[C@@H](CCC(N)=O)C(=O)O` [Example 12, L-alanyl-L-glutamine nonhydrate] (H-Ala-Gln-OH) were, in that order, 41.4 °, 0.3%, 44.7 °, 3.07 mL/g and 2.37 mL/g.
For `C[C@H](N)C(=O)N[C@@H](CCC(N)=O)C(=O)O` [Patent No. 4931801 (nonhydrate), L-alanyl-L-glutamine nonhydrate, reference compound] (H-Ala-Gln-OH), in that order: 46.0 °, 0.2%, 50.9 °, 5.27 mL/g and 2.66 mL/g.

Source of the values: patent publication US11192851B2, “Crystal of L-alanyl-L-glutamine and method for producing same” (KYOWA HAKKO BIO CO., LTD., priority 2016, dated 2021).
